± gives the expanded uncertainty stated by the source.
Conditions: Liquid, Vibrating tube method

## CCCCn1cc[n+](C)c1.F[B-](F)(F)F [1-butyl-3-methylimidazolium tetrafluoroborate]
298.15 K
  mass density: 1192.03 ± 0.39 kg/m3
303.15 K
  mass density: 1188.38 ± 0.39 kg/m3
313.15 K
  mass density: 1181.25 ± 0.38 kg/m3
323.15 K
  mass density: 1174.18 ± 0.37 kg/m3
333.15 K
  mass density: 1167.09 ± 0.37 kg/m3
343.15 K
  mass density: 1160.17 ± 0.36 kg/m3
353.15 K
  mass density: 1152.63 ± 0.36 kg/m3

## CCCCn1cc[n+](C)c1.F[P-](F)(F)(F)(F)F [1-butyl-3-methylimidazolium hexafluorophosphate]
298.15 K
  mass density: 1366.57 ± 0.55 kg/m3
303.15 K
  mass density: 1362.23 ± 0.54 kg/m3
308.15 K
  mass density: 1357.92 ± 0.54 kg/m3
313.15 K
  mass density: 1353.63 ± 0.53 kg/m3
323.15 K
  mass density: 1345.33 ± 0.53 kg/m3

From the NIST ThermoML archive (doi:10.1021/je800331n)
